Laboratory results published in US10757943B2, “Thidiazuron mixtures and uses thereof” (Valent BioSciences LLC, priority 2017, dated 2020).

Legend:
Assay type in all cases: in vivo
Concord grape vines [1] = test: Bud break and harvest weight of endo-dormant two-year-old Concord grape vines in the greenhouse (Example 4); details: thidiazuron ppm and 17-0-0 % as in label, 15-0-0 65,880 ppm; for Fresh Shoot Weight (g)/Plant: new growth at close of study
Text: Two-year-old Concord grape vines were purchased commercially. These vines had just lost their leaves and were shipped shortly after they were dug at the nursery. Thus, the vines had not fulfilled their chilling requirement and were considered endo-dormant. The vines were potted individually into one-gallon pots containing ProMix® BX immediately upon receipt and subsequently pruned back to the five proximal buds on the one-year old wood. Within two hours of pruning, treatment solutions were applied using a foam paint brush to the remaining one-year old wood, including the cut end from pruning. Two treatments, water and hydrogen cyanimide, which acted as negative and positive controls, respectively, were included in all studies.
Treatment solutions were made fresh in water and contained 1% (v/v) non-ionic surfactant. In all cases, two treatment solutions were applied to the plants. Where a single component was used for a treatment, the first application solution was water containing surfactant; in the cases where combination treatments were made to the same plant, the first treatment solution was allowed to dry prior to applying the second.
The treated plants were kept in a conventional greenhouse under supplemental lighting. Greenhouse conditions were 65:60° F. Day:Night temperature with a 16:8 hour photoperiod. Relief from dormancy was assessed every two days during the course of the study. Dormancy was considered relieved upon the emergence of a green bud. Both the number of ‘broken buds’ per plant and the date of relief of plants from dormancy were assessed. At the close of the study, new growth was removed from each of the treated plants and weighed.

[2] = system: Red Flame seedless grape vines; test: Bud break and shoot length of field-grown Red Flame seedless grape vines (Example 2); details: for Broken Buds per plant (Average Buds Broken per Spur): 31 days after treatment; for % Broken Buds / Total Shoot Length: 48 days after treatment
Experimental: To assess the ability of mixtures of the invention to promote and synchronize bud break these mixtures were applied to field-grown Red Flame seedless grape vines and examined for bud break (initiation of growth) and subsequent shoot development. Thidiazuron, hydrogen cyanamide, 17-0-0 fertilizer, and mixtures thereof were each applied individually or sequentially (co-applied) to the separate spurs of Red Flame seedless grape vines. Plants were evaluated for bud break at 31 days after treatment, for percent bud break and total new shoot length at 48 days after treatment. Results of these evaluations can be seen below in Tables 4 and 5.

Concord grape vines [3] = test: Bud break and shoot growth of potted dormant Concord grape vines in the greenhouse (Example 1); details: hydrogen cyanamide 10,000 ppm, 17-0-0 197,100 ppm, 15-0-0 239,060 ppm, ACC 1,000 ppm, thidiazuron 300 ppm unless label states other
Text: An aqueous 50% hydrogen cyanamide solution (Sigma-Aldrich, St. Louis, Mo. USA) was used as the source of hydrogen cyanamide. The commercial product, Dormex® contains 50% hydrogen cyanamide (w/v) in water.
Erger® was used as the source of 15-0-0 fertilizer. (Erger is a registered trademark of Valagro S.P.A., Italy and is available from Helena Chemical Company, Collierville, Tenn., USA). Erger® contains 15% total nitrogen as 3.1% ammoniacal nitrogen, 5.8% nitrate nitrogen and 6.1% urea nitrogen and 3.3% calcium derived from ammonium nitrate, calcium nitrate and urea. As used herein, the term “15-0-0 fertilizer” refers to the Erger® formulation above and all formulations described in International PCT application publication WO/2001/037653A2 by Valagro S.P.A., Italy, which is incorporated, herein, in its entirety.
CAN-17 was used as the source of 17-0-0 fertilizer. CAN-17 contains 17% total nitrogen as 4.6% ammonium nitrogen and […] nitrate nitrogen and 1.3% urea nitrogen and 8.8% calcium derived from ammonium nitrate and calcium nitrate. CAN-17 is available from J.R. Simplot Company (Boise, Id., USA).
To assess the ability of mixtures of the invention to promote and synchronize bud break these mixtures were applied to Concord grape vines and examined for bud break (initiation of growth) and subsequent shoot development. Specifically, 1 year old dormant bare rooted Concord grape vines were planted in pots containing Pro-Mix® BX potting soil (Pro-Mix is a registered trademark of and available from Premier Horticulture Ltd.) and pruned to 5 nodes on a single shoot. Aqueous solutions of thidiazuron, hydrogen cyanamide, 15-0-0 fertilizer, 17-0-0 fertilizer and 1-aminocyclopropane-1-carboxylic acid (“ACC”), and mixtures thereof were each applied individually or sequentially or co-applied to the first-year wood of separate Concord grape vines. Plants were grown in the greenhouse for 49 days and evaluated for percent of vines showing bud break, or relief from dormancy, periodically between 7 days and the conclusion of the experiment. […] At 49 days after treatment (DAT), the plants were sacrificed and measured for total number of flower clusters, total new shoot length, longest new shoot, combined new shoot fresh weight and combined new shoot dry weight. New shoot growth is the growth arising from the dormant buds not including the woody growth that was planted and gave rise to the new growth.
Synergy is calculated by the Abbott method: %Cexp=A+B−(AB/100), where % Cexp is the expected efficacy and in which A and B are the speed of bud break or shoot length or shoot weight given by the single active ingredients. If the ratio between the experimentally observed efficacy of the mixture Cobs and the expected efficacy of the mixture is greater than 1, synergistic interactions are present in the mixture” (Gisi, Synergistic Interaction of Fungicides in Mixtures, The American Phytopathological Society, 86:11, 1273-1279,1996).

[4] = hydrogen cyanamide 10,000 ppm, thidiazuron 300 ppm, 17-0-0 197,100 ppm

O=C(Nc1ccccc1)Nc1cnns1 [Thidiazuron, 1-Phenyl-3-(1,2,3-thiadiazol-5-yl)urea]
Fresh Shoot Weight (g)/Plant (Concord grape vines [1]; listed as Thidiazuron (100)): 15.53 g | Fresh Shoot Weight (g)/Plant (Concord grape vines [1]; listed as Thidiazuron (300)): 13.15 g | Fresh Shoot Weight (g)/Plant (Concord grape vines [1]; listed as Thidiazuron (1000)): 22.45 g | 50% Bud Break (DAT) (Concord grape vines [1]; listed as Thidiazuron (100)): 33 DAT | 100% Bud Break (DAT) (Concord grape vines [1]; listed as Thidiazuron (100)): 44 DAT | Initial to 50% Bud Break (Concord grape vines [1]; listed as Thidiazuron (100)): 7 | Number of Buds Broken/Plant (Concord grape vines [1]; listed as Thidiazuron (100)): 2 | 50% Bud Break (DAT) (Concord grape vines [1]; listed as Thidiazuron (300)): 28 DAT | 100% Bud Break (DAT) (Concord grape vines [1]; listed as Thidiazuron (300)): 48 DAT | Initial to 50% Bud Break (Concord grape vines [1]; listed as Thidiazuron (300)): 14 | Number of Buds Broken/Plant (Concord grape vines [1]; listed as Thidiazuron (300)): 2.125 | 50% Bud Break (DAT) (Concord grape vines [1]; listed as Thidiazuron (1000)): 21 DAT | 100% Bud Break (DAT) (Concord grape vines [1]; listed as Thidiazuron (1000)): 37 DAT | Initial to 50% Bud Break (Concord grape vines [1]; listed as Thidiazuron (1000)): 7 | Number of Buds Broken/Plant (Concord grape vines [1]; listed as Thidiazuron (1000)): 4.5 | Broken Buds per plant (Average Buds Broken per Spur) [2, 4]: 0.1 | Broken Buds per plant (Average Buds Broken per Spur) ([2]; thidiazuron 1,000 ppm): 0.4 | % Broken Buds [2, 4]: 80% | Total Shoot Length [2, 4]: 15.38 | % Broken Buds ([2]; thidiazuron 1,000 ppm): 78.1% | Total Shoot Length ([2]; thidiazuron 1,000 ppm): 24.3 | % bud break (vines with at least one bud break) (Concord grape vines [3]; 7 DAT): 0% | % bud break (vines with at least one bud break) (Concord grape vines [3]; 10 DAT): 0.0% | % bud break (vines with at least one bud break) (Concord grape vines [3]; 10 DAT, listed as Thidiazuron (1,000)): 44.4% | % bud break (vines with at least one bud break) (Concord grape vines [3]; 13 DAT): 0.0% | % bud break (vines with at least one bud break) (Concord grape vines [3]; 13 DAT, listed as Thidiazuron (1,000)): 77.8% | % bud break (vines with at least one bud break) (Concord grape vines [3]; 15 DAT): 0.0% | % bud break (vines with at least one bud break) (Concord grape vines [3]; 15 DAT, listed as Thidiazuron (1,000)): 88.9% | % bud break (vines with at least one bud break) (Concord grape vines [3]; 17 DAT): 11.1% | % bud break (vines with at least one bud break) (Concord grape vines [3]; 17 DAT, listed as Thidiazuron (1,000)): 88.9% | % bud break (vines with at least one bud break) (Concord grape vines [3]; 20 DAT): 11.1% | % bud break (vines with at least one bud break) (Concord grape vines [3]; 20 DAT, listed as Thidiazuron (1,000)): 100.0% | % bud break (vines with at least one bud break) (Concord grape vines [3]; 22 DAT): 22.2% | % bud break (vines with at least one bud break) (Concord grape vines [3]; 22 DAT, listed as Thidiazuron (1,000)): 100.0% | % bud break (vines with at least one bud break) (Concord grape vines [3]; 24 DAT): 33.3% | % bud break (vines with at least one bud break) (Concord grape vines [3]; 24 DAT, listed as Thidiazuron (1,000)): 100.0% | % bud break (vines with at least one bud break) (Concord grape vines [3]; 27 DAT): 33.3% | % bud break (vines with at least one bud break) (Concord grape vines [3]; 27 DAT, listed as Thidiazuron (1,000 ppm)): 100.0% | % bud break (vines with at least one bud break) (Concord grape vines [3]; 29 DAT): 33.3% | % bud break (vines with at least one bud break) (Concord grape vines [3]; 29 DAT, listed as Thidiazuron (1,000 ppm)): 100.0%
